Assay results from the NIST ThermoML archive (doi:10.1016/j.jct.2015.07.042).
Numbers after ± are expanded uncertainties.

Assay: activity coefficient (dimensionless); of the first substance listed, at infinite dilution; xn = mol fraction of the nth substance listed
Details: 101 kPa, Liquid, Chromatography, x1 = 0

Structure (SMILES) | activity coefficient (358.15 K) | activity coefficient (368.15 K) | activity coefficient (378.15 K) | activity coefficient (388.15 K) | activity coefficient (398.15 K) | activity coefficient (408.15 K) | activity coefficient (418.15 K) | activity coefficient (428.15 K)
C1CCCC1 [cyclopentane] + CCCCn1cc[n+](C)c1.CS(=O)(=O)[O-] | 23.9 ± 1.6 | 23.7 ± 1.6 | 23.5 ± 1.6 | 23.3 ± 1.6 | – | – | – | –
c1ccccc1 [benzene] + CCCCn1cc[n+](C)c1.[Cl-] | 4.51 ± 0.31 | 4.59 ± 0.31 | 4.72 ± 0.32 | 4.82 ± 0.33 | – | – | – | –
CC(C)(C)O [2-methylpropan-2-ol] + CCCCn1cc[n+](C)c1.CS(=O)(=O)[O-] | – | – | – | – | 1.28 ± 0.083 | 1.39 ± 0.09 | 1.48 ± 0.098 | 1.59 ± 0.11
COC(C)(C)C [2-methoxy-2-methylpropane] + CCCCn1cc[n+](C)c1.COP(=O)([O-])OC | 7.17 ± 0.49 | 7.35 ± 0.5 | 7.48 ± 0.51 | 7.66 ± 0.52 | – | – | – | –
C1CCCCCC1 [cycloheptane] + CCCCn1cc[n+](C)c1.COP(=O)([O-])OC | 15.1 ± 1 | 14.6 ± 1 | 14.3 ± 0.97 | 14 ± 0.96 | – | – | – | –
CC(C)O [propan-2-ol] + CCCCn1cc[n+](C)c1.COP(=O)([O-])OC | – | – | – | – | 0.256 ± 0.03 | 0.282 ± 0.03 | 0.311 ± 0.031 | 0.344 ± 0.032
Cc1ccc(C)cc1 [1,4-dimethylbenzene] + CCCCn1cc[n+](C)c1.CS(=O)(=O)[O-] | 9.03 ± 0.62 | 9.2 ± 0.63 | 9.37 ± 0.64 | 9.71 ± 0.66 | – | – | – | –
C1CCCCC1 [cyclohexane] + CCCCn1cc[n+](C)c1.CS(=O)(=O)[O-] | 35.2 ± 2.4 | 34.5 ± 2.4 | 33.9 ± 2.3 | 33.8 ± 2.3 | – | – | – | –
C=COC(C)=O [vinyl acetate] + CCCCn1cc[n+](C)c1.CS(=O)(=O)[O-] | 3.47 ± 0.24 | 3.58 ± 0.24 | 3.76 ± 0.26 | 3.92 ± 0.27 | – | – | – | –
CC(C)=O [acetone] + CCCCn1cc[n+](C)c1.[Cl-] | 3.05 ± 0.21 | 3.12 ± 0.21 | 3.17 ± 0.22 | 3.27 ± 0.22 | – | – | – | –
COC(C)=O [methyl ethanoate] + CCCCn1cc[n+](C)c1.CS(=O)(=O)[O-] | 2.94 ± 0.2 | 3.03 ± 0.21 | 3.14 ± 0.21 | 3.33 ± 0.23 | – | – | – | –
Cc1ccccc1C [1,2-dimethylbenzene] + CCCCn1cc[n+](C)c1.CS(=O)(=O)[O-] | 7.64 ± 0.52 | 7.79 ± 0.53 | 7.99 ± 0.54 | 8.21 ± 0.56 | – | – | – | –
C=C(C)c1ccccc1 [(1-methylethenyl)benzene] + CCCCn1cc[n+](C)c1.CS(=O)(=O)[O-] | 6.43 ± 0.44 | 6.71 ± 0.46 | 6.96 ± 0.47 | 7.41 ± 0.51 | – | – | – | –
COC(C)=O [methyl ethanoate] + CCCCn1cc[n+](C)c1.[Cl-] | 4.82 ± 0.33 | 4.89 ± 0.33 | 5.01 ± 0.34 | 5.09 ± 0.35 | – | – | – | –
c1ccncc1 [pyridine] + CCCCn1cc[n+](C)c1.COP(=O)([O-])OC | 1.18 ± 0.08 | 1.23 ± 0.08 | 1.28 ± 0.08 | 1.35 ± 0.09 | – | – | – | –
C=COC(C)=O [vinyl acetate] + CCCCn1cc[n+](C)c1.[Cl-] | 5.66 ± 0.39 | 5.74 ± 0.39 | 5.86 ± 0.4 | 6.05 ± 0.41 | – | – | – | –
C1CCCCCC1 [cycloheptane] + CCCCn1cc[n+](C)c1.[Cl-] | 62.7 ± 4.3 | 58.8 ± 4 | 55.4 ± 3.8 | 53.6 ± 3.7 | – | – | – | –
CC(C)CO [2-methyl-1-propanol] + CCCCn1cc[n+](C)c1.CS(=O)(=O)[O-] | – | – | – | – | 0.893 ± 0.057 | 0.938 ± 0.059 | 0.991 ± 0.062 | 1.04 ± 0.066
CCOC(C)(C)C [2-ethoxy-2-methylpropane] + CCCCn1cc[n+](C)c1.COP(=O)([O-])OC | 12.8 ± 0.87 | 12.8 ± 0.87 | 12.9 ± 0.88 | 12.9 ± 0.88 | – | – | – | –
CCC(C)(C)OC [2-methoxy-2-methylbutane] + CCCCn1cc[n+](C)c1.[Cl-] | 34 ± 2.3 | 33.1 ± 2.3 | 32.2 ± 2.2 | 32.1 ± 2.2 | – | – | – | –
C=CCCCCC [1-heptene] + CCCCn1cc[n+](C)c1.CS(=O)(=O)[O-] | 59.2 ± 4.1 | 58.9 ± 4 | 58.7 ± 4 | 58 ± 4 | – | – | – | –
C1CCCC1 [cyclopentane] + CCCCn1cc[n+](C)c1.[Cl-] | 38.7 ± 2.6 | 36.2 ± 2.5 | 33.5 ± 2.3 | 31.8 ± 2.2 | – | – | – | –
CC(C)(C)O [2-methylpropan-2-ol] + CCCCn1cc[n+](C)c1.COP(=O)([O-])OC | – | – | – | – | 0.419 ± 0.035 | 0.471 ± 0.037 | 0.527 ± 0.039 | 0.592 ± 0.042

Structure (SMILES) | activity coefficient (358.15 K) | activity coefficient (368.15 K) | activity coefficient (378.15 K) | activity coefficient (388.15 K) | activity coefficient (398.15 K) | activity coefficient (408.15 K) | activity coefficient (418.15 K) | activity coefficient (428.15 K)
C=CCCCCCCCC [1-decene] + CCCCn1cc[n+](C)c1.COP(=O)([O-])OC | 53.5 ± 3.7 | 52.2 ± 3.6 | 50.4 ± 3.5 | 49.2 ± 3.4 | – | – | – | –
CCOCC [diethyl ether] + CCCCn1cc[n+](C)c1.[Cl-] | 19.3 ± 1.3 | 18.9 ± 1.3 | 18.4 ± 1.3 | 18.4 ± 1.3 | – | – | – | –
C#CCCC [1-pentyne] + CCCCn1cc[n+](C)c1.CS(=O)(=O)[O-] | 5.46 ± 0.37 | 5.84 ± 0.4 | 6.26 ± 0.43 | 6.67 ± 0.45 | – | – | – | –
C=Cc1ccccc1 [styrene] + CCCCn1cc[n+](C)c1.CS(=O)(=O)[O-] | 3.79 ± 0.26 | 3.96 ± 0.27 | 4.2 ± 0.29 | 4.4 ± 0.3 | – | – | – | –
Cc1ccccc1C [1,2-dimethylbenzene] + CCCCn1cc[n+](C)c1.[Cl-] | 11.6 ± 0.79 | 11.7 ± 0.8 | 11.9 ± 0.81 | 12.3 ± 0.84 | – | – | – | –
CCCC(C)=O [pentan-2-one] + CCCCn1cc[n+](C)c1.CS(=O)(=O)[O-] | 4.5 ± 0.31 | 4.59 ± 0.31 | 4.76 ± 0.32 | 4.91 ± 0.33 | – | – | – | –
C=CCCCCC [1-heptene] + CCCCn1cc[n+](C)c1.[Cl-] | 88.9 ± 6.1 | 83.8 ± 5.7 | 79.3 ± 5.4 | 77.2 ± 5.3 | – | – | – | –
CC(C)OC(C)C [diisopropyl ether] + CCCCn1cc[n+](C)c1.CS(=O)(=O)[O-] | 40.6 ± 2.8 | – | 40.8 ± 2.8 | 41.2 ± 2.8 | – | – | – | –
CCO [ethanol] + CCCCn1cc[n+](C)c1.CS(=O)(=O)[O-] | – | – | – | – | 0.533 ± 0.039 | 0.553 ± 0.04 | 0.576 ± 0.041 | 0.599 ± 0.042
c1ccccc1 [benzene] + CCCCn1cc[n+](C)c1.COP(=O)([O-])OC | 2.33 ± 0.16 | 2.41 ± 0.16 | 2.49 ± 0.17 | 2.63 ± 0.18 | – | – | – | –
CC1CCCCC1 [methylcyclohexane] + CCCCn1cc[n+](C)c1.CS(=O)(=O)[O-] | 52.8 ± 3.6 | 51.7 ± 3.5 | 50.9 ± 3.5 | 50.4 ± 3.5 | – | – | – | –
C=CCCCCC [1-heptene] + CCCCn1cc[n+](C)c1.COP(=O)([O-])OC | 19.6 ± 1.3 | 19.4 ± 1.3 | 19.1 ± 1.3 | 18.9 ± 1.3 | – | – | – | –
CC(C)OC(C)C [diisopropyl ether] + CCCCn1cc[n+](C)c1.[Cl-] | 78.5 ± 5.4 | 71.7 ± 4.9 | 64 ± 4.4 | 59.1 ± 4 | – | – | – | –
CC(C)CO [2-methyl-1-propanol] + CCCCn1cc[n+](C)c1.[Cl-] | – | – | – | – | 0.54 ± 0.039 | 0.576 ± 0.041 | 0.615 ± 0.043 | 0.665 ± 0.045
C1CCCCCCC1 [cyclooctane] + CCCCn1cc[n+](C)c1.COP(=O)([O-])OC | 18.8 ± 1.3 | 18.2 ± 1.2 | 17.7 ± 1.2 | 17.3 ± 1.2 | – | – | – | –
CC1CCCCC1 [methylcyclohexane] + CCCCn1cc[n+](C)c1.COP(=O)([O-])OC | 17.4 ± 1.2 | 16.8 ± 1.1 | 16.4 ± 1.1 | 16.1 ± 1.1 | – | – | – | –
Cc1ccccc1 [toluene] + CCCCn1cc[n+](C)c1.[Cl-] | 7.78 ± 0.53 | 7.91 ± 0.54 | 8.09 ± 0.55 | 8.36 ± 0.57 | – | – | – | –
C=Cc1ccccc1 [styrene] + CCCCn1cc[n+](C)c1.[Cl-] | 4.96 ± 0.34 | 5.18 ± 0.35 | 5.42 ± 0.37 | 5.73 ± 0.39 | – | – | – | –
C=C(C)c1ccccc1 [(1-methylethenyl)benzene] + CCCCn1cc[n+](C)c1.[Cl-] | 9.01 ± 0.61 | 9.33 ± 0.64 | 9.83 ± 0.67 | 10.3 ± 0.71 | – | – | – | –
CCCC=O [butanal] + CCCCn1cc[n+](C)c1.CS(=O)(=O)[O-] | 3.33 ± 0.23 | 3.44 ± 0.23 | 3.58 ± 0.24 | 3.74 ± 0.25 | – | – | – | –
CC(C)(C)O [2-methylpropan-2-ol] + CCCCn1cc[n+](C)c1.[Cl-] | – | – | – | – | 0.987 ± 0.062 | 1.07 ± 0.067 | 1.16 ± 0.074 | 1.27 ± 0.082
C1CCOC1 [tetrahydrofuran] + CCCCn1cc[n+](C)c1.CS(=O)(=O)[O-] | 3.41 ± 0.23 | 3.48 ± 0.24 | 3.59 ± 0.24 | 3.72 ± 0.25 | – | – | – | –
Cc1cccc(C)c1 [1,3-dimethylbenzene] + CCCCn1cc[n+](C)c1.[Cl-] | 14.3 ± 0.98 | 14.5 ± 0.99 | 14.7 ± 1 | 15 ± 1 | – | – | – | –
